# Reference: publication PMC11823630, “In vitro potentiation of tetracyclines in Pseudomonas aeruginosa by RW01, a new cyclic peptide” (Antimicrobial Agents and Chemotherapy, 2024)
# Tested on: PAO1 mutant MIN16_2, nalC(aa9∆4), pilQ(nt46∆1)
# Assay: MIC, Sensititre custom plate
# Assay type: cell-based
# Details: Pseudomonas aeruginosa, PAO1, read-out: MIC, Sensititre
# Experimental: (§1) Selection of resistant mutants was performed for minocycline with and without RW01 in three independent replicates for wild-type P. aeruginosa reference strain PAO1. Tubes containing Mueller-Hinton broth (MHB) were inoculated and incubated for 24 h at 37°C. Afterward, 1/100 dilution of each tube was incubated at 37°C in MHB to late-exponential growth phase, measured by spectrophotometry at OD600. […] A control plate without antibiotic was included as inoculum control. After overnight incubation, colony counting of each treatment was performed to analyze the generation of resistant population. The mutant prevention concentration (MPC) was defined as the lowest concentration of antibiotic yielding no growth of resistant mutants. Selected mutants were checked for susceptibility profiles by using a Sensititre custom plate (Thermo Fisher Scientific, Massachusetts, USA) for Gram-negative bacteria, following the manufacturer’s instructions.
row,SMILES,MIC
1,"NC[C@H]1O[C@H](O[C@H]2[C@H](O)[C@@H](O[C@H]3O[C@H](CO)[C@@H](O)[C@H](N)[C@H]3O)[C@H](N)C[C@@H]2N)[C@H](N)C[C@@H]1O [TOB, tobramycin]",≤ 0.25 µg/mL

# Tested on: PAO1 mutant MIN1_RW01_1, pmrB(Y98N)
# Assay: MIC, Sensititre custom plate
# Assay type: cell-based
# Details: Pseudomonas aeruginosa, PAO1, read-out: MIC, Sensititre
# Experimental: as §1
row,SMILES,MIC
1,"NC[C@H]1O[C@H](O[C@H]2[C@H](O)[C@@H](O[C@H]3O[C@H](CO)[C@@H](O)[C@H](N)[C@H]3O)[C@H](N)C[C@@H]2N)[C@H](N)C[C@@H]1O [TOB, tobramycin]",1 µg/mL

# Tested on: P. aeruginosa PAO1, WT
# Assay: MIC, Sensititre custom plate
# Assay type: cell-based
# Details: Pseudomonas aeruginosa, PAO1, read-out: MIC, Sensititre
# Experimental: as §1
row,SMILES,MIC
1,"NC[C@H]1O[C@H](O[C@H]2[C@H](O)[C@@H](O[C@H]3O[C@H](CO)[C@@H](O)[C@H](N)[C@H]3O)[C@H](N)C[C@@H]2N)[C@H](N)C[C@@H]1O [TOB, tobramycin]",0.25 to 0.5 µg/mL

# Tested on: PAO1 mutant MIN4_RW01_4, pmrB(Y98N)
# Assay: MIC, Sensititre custom plate
# Assay type: cell-based
# Details: Pseudomonas aeruginosa, PAO1, read-out: MIC, Sensititre
# Experimental: as §1
row,SMILES,MIC
1,"NC[C@H]1O[C@H](O[C@H]2[C@H](O)[C@@H](O[C@H]3O[C@H](CO)[C@@H](O)[C@H](N)[C@H]3O)[C@H](N)C[C@@H]2N)[C@H](N)C[C@@H]1O [TOB, tobramycin]",1 µg/mL

# Tested on: PAO1 mutant MIN32_1, mexR(R63H), pilB(N349K), PA0646(V316G)
# Assay: MIC, Sensititre custom plate
# Assay type: cell-based
# Details: Pseudomonas aeruginosa, PAO1, read-out: MIC, Sensititre
# Experimental: as §1
row,SMILES,MIC
1,"NC[C@H]1O[C@H](O[C@H]2[C@H](O)[C@@H](O[C@H]3O[C@H](CO)[C@@H](O)[C@H](N)[C@H]3O)[C@H](N)C[C@@H]2N)[C@H](N)C[C@@H]1O [TOB, tobramycin]",0.25 to 0.5 µg/mL

# Tested on: PAO1 mutant MIN4_RW01_3, pmrB(M292T)
# Assay: MIC, Sensititre custom plate
# Assay type: cell-based
# Details: Pseudomonas aeruginosa, PAO1, read-out: MIC, Sensititre
# Experimental: as §1
row,SMILES,MIC
1,"NC[C@H]1O[C@H](O[C@H]2[C@H](O)[C@@H](O[C@H]3O[C@H](CO)[C@@H](O)[C@H](N)[C@H]3O)[C@H](N)C[C@@H]2N)[C@H](N)C[C@@H]1O [TOB, tobramycin]",0.5 µg/mL

# Tested on: PAO1 mutant MIN2_RW01_3, parS(V152A)
# Assay: MIC, Sensititre custom plate
# Assay type: cell-based
# Details: Pseudomonas aeruginosa, PAO1, read-out: MIC, Sensititre
# Experimental: as §1
row,SMILES,MIC
1,"NC[C@H]1O[C@H](O[C@H]2[C@H](O)[C@@H](O[C@H]3O[C@H](CO)[C@@H](O)[C@H](N)[C@H]3O)[C@H](N)C[C@@H]2N)[C@H](N)C[C@@H]1O [TOB, tobramycin]",1 µg/mL

# Tested on: PAO1 mutant MIN16_3, nfxB(nt79∆14), pilB(N349K)
# Assay: MIC, Sensititre custom plate
# Assay type: cell-based
# Details: Pseudomonas aeruginosa, PAO1, read-out: MIC, Sensititre
# Experimental: as §1
row,SMILES,MIC
1,"NC[C@H]1O[C@H](O[C@H]2[C@H](O)[C@@H](O[C@H]3O[C@H](CO)[C@@H](O)[C@H](N)[C@H]3O)[C@H](N)C[C@@H]2N)[C@H](N)C[C@@H]1O [TOB, tobramycin]",≤ 0.25 µg/mL

# Tested on: PAO1 mutant MIN1_RW01_3, pmrB(V215L)
# Assay: MIC, Sensititre custom plate
# Assay type: cell-based
# Details: Pseudomonas aeruginosa, PAO1, read-out: MIC, Sensititre
# Experimental: as §1
row,SMILES,MIC
1,"NC[C@H]1O[C@H](O[C@H]2[C@H](O)[C@@H](O[C@H]3O[C@H](CO)[C@@H](O)[C@H](N)[C@H]3O)[C@H](N)C[C@@H]2N)[C@H](N)C[C@@H]1O [TOB, tobramycin]",1 µg/mL

# Tested on: PAO1 mutant MIN16_1, nalD(T43P)
# Assay: MIC, Sensititre custom plate
# Assay type: cell-based
# Details: Pseudomonas aeruginosa, PAO1, read-out: MIC, Sensititre
# Experimental: as §1
row,SMILES,MIC
1,"NC[C@H]1O[C@H](O[C@H]2[C@H](O)[C@@H](O[C@H]3O[C@H](CO)[C@@H](O)[C@H](N)[C@H]3O)[C@H](N)C[C@@H]2N)[C@H](N)C[C@@H]1O [TOB, tobramycin]",0.5 µg/mL

# Tested on: PAO1 mutant MIN1_RW01_2, mexR(G58E), pilB(G326D), hutC(Y181X)
# Assay: MIC, Sensititre custom plate
# Assay type: cell-based
# Details: Pseudomonas aeruginosa, PAO1, read-out: MIC, Sensititre
# Experimental: as §1
row,SMILES,MIC
1,"NC[C@H]1O[C@H](O[C@H]2[C@H](O)[C@@H](O[C@H]3O[C@H](CO)[C@@H](O)[C@H](N)[C@H]3O)[C@H](N)C[C@@H]2N)[C@H](N)C[C@@H]1O [TOB, tobramycin]",≤ 0.25 µg/mL

# Tested on: PAO1 mutant MIN2_RW01_4, pmrB(M292T)
# Assay: MIC, Sensititre custom plate
# Assay type: cell-based
# Details: Pseudomonas aeruginosa, PAO1, read-out: MIC, Sensititre
# Experimental: as §1
row,SMILES,MIC
1,"NC[C@H]1O[C@H](O[C@H]2[C@H](O)[C@@H](O[C@H]3O[C@H](CO)[C@@H](O)[C@H](N)[C@H]3O)[C@H](N)C[C@@H]2N)[C@H](N)C[C@@H]1O [TOB, tobramycin]",0.5 µg/mL

# Tested on: PAO1 mutant MIN2_RW01_1, pmrB(V215L)
# Assay: MIC, Sensititre custom plate
# Assay type: cell-based
# Details: Pseudomonas aeruginosa, PAO1, read-out: MIC, Sensititre
# Experimental: as §1
row,SMILES,MIC
1,"NC[C@H]1O[C@H](O[C@H]2[C@H](O)[C@@H](O[C@H]3O[C@H](CO)[C@@H](O)[C@H](N)[C@H]3O)[C@H](N)C[C@@H]2N)[C@H](N)C[C@@H]1O [TOB, tobramycin]",0.5 µg/mL

# Tested on: PAO1 mutant MIN4_RW01_1, pmrB(R429H)
# Assay: MIC, Sensititre custom plate
# Assay type: cell-based
# Details: Pseudomonas aeruginosa, PAO1, read-out: MIC, Sensititre
# Experimental: as §1
row,SMILES,MIC
1,"NC[C@H]1O[C@H](O[C@H]2[C@H](O)[C@@H](O[C@H]3O[C@H](CO)[C@@H](O)[C@H](N)[C@H]3O)[C@H](N)C[C@@H]2N)[C@H](N)C[C@@H]1O [TOB, tobramycin]",0.5 µg/mL

# Tested on: PAO1 mutant MIN2_RW01_2, pmrB(M292T)
# Assay: MIC, Sensititre custom plate
# Assay type: cell-based
# Details: Pseudomonas aeruginosa, PAO1, read-out: MIC, Sensititre
# Experimental: as §1
row,SMILES,MIC
1,"NC[C@H]1O[C@H](O[C@H]2[C@H](O)[C@@H](O[C@H]3O[C@H](CO)[C@@H](O)[C@H](N)[C@H]3O)[C@H](N)C[C@@H]2N)[C@H](N)C[C@@H]1O [TOB, tobramycin]",0.5 µg/mL

# Tested on: PAO1 mutant MIN8_3, pilZ(nt18InsT)
# Assay: MIC, Sensititre custom plate
# Assay type: cell-based
# Details: Pseudomonas aeruginosa, PAO1, read-out: MIC, Sensititre
# Experimental: as §1
row,SMILES,MIC
1,"NC[C@H]1O[C@H](O[C@H]2[C@H](O)[C@@H](O[C@H]3O[C@H](CO)[C@@H](O)[C@H](N)[C@H]3O)[C@H](N)C[C@@H]2N)[C@H](N)C[C@@H]1O [TOB, tobramycin]",≤ 0.25 µg/mL

# Tested on: PAO1 mutant MIN16_4, nalC(T50P), pilM(Q62X)
# Assay: MIC, Sensititre custom plate
# Assay type: cell-based
# Details: Pseudomonas aeruginosa, PAO1, read-out: MIC, Sensititre
# Experimental: as §1
row,SMILES,MIC
1,"NC[C@H]1O[C@H](O[C@H]2[C@H](O)[C@@H](O[C@H]3O[C@H](CO)[C@@H](O)[C@H](N)[C@H]3O)[C@H](N)C[C@@H]2N)[C@H](N)C[C@@H]1O [TOB, tobramycin]",≤ 0.25 µg/mL

# Tested on: PAO1 mutant MIN8_1, nalD(R3C), pilM(Q62X)
# Assay: MIC, Sensititre custom plate
# Assay type: cell-based
# Details: Pseudomonas aeruginosa, PAO1, read-out: MIC, Sensititre
# Experimental: as §1
row,SMILES,MIC
1,"NC[C@H]1O[C@H](O[C@H]2[C@H](O)[C@@H](O[C@H]3O[C@H](CO)[C@@H](O)[C@H](N)[C@H]3O)[C@H](N)C[C@@H]2N)[C@H](N)C[C@@H]1O [TOB, tobramycin]",0.5 µg/mL

# Tested on: PAO1 mutant MIN8_4, pilZ(nt18InsT)
# Assay: MIC, Sensititre custom plate
# Assay type: cell-based
# Details: Pseudomonas aeruginosa, PAO1, read-out: MIC, Sensititre
# Experimental: as §1
row,SMILES,MIC
1,"NC[C@H]1O[C@H](O[C@H]2[C@H](O)[C@@H](O[C@H]3O[C@H](CO)[C@@H](O)[C@H](N)[C@H]3O)[C@H](N)C[C@@H]2N)[C@H](N)C[C@@H]1O [TOB, tobramycin]",0.5 µg/mL

# Tested on: PAO1 mutant MIN8_2, pilZ(nt18InsT)
# Assay: MIC, Sensititre custom plate
# Assay type: cell-based
# Details: Pseudomonas aeruginosa, PAO1, read-out: MIC, Sensititre
# Experimental: as §1
row,SMILES,MIC
1,"NC[C@H]1O[C@H](O[C@H]2[C@H](O)[C@@H](O[C@H]3O[C@H](CO)[C@@H](O)[C@H](N)[C@H]3O)[C@H](N)C[C@@H]2N)[C@H](N)C[C@@H]1O [TOB, tobramycin]",0.5 µg/mL

# Tested on: PAO1 mutant MIN1_RW01_4, pmrB(F124L)
# Assay: microbe, parasite or virus in culture
# Assay type: cell-based
# Details: Pseudomonas aeruginosa, PAO1, read-out: MIC, Sensititre
# Experimental: as §1
row,SMILES,MIC
1,"NC[C@H]1O[C@H](O[C@H]2[C@H](O)[C@@H](O[C@H]3O[C@H](CO)[C@@H](O)[C@H](N)[C@H]3O)[C@H](N)C[C@@H]2N)[C@H](N)C[C@@H]1O [TOB, tobramycin]",≤ 0.25 µg/mL

# Tested on: PAO1 mutant MIN4_RW01_2, pmrB(F124S)
# Assay: microbe, parasite or virus in culture
# Assay type: cell-based
# Details: Pseudomonas aeruginosa, PAO1, read-out: MIC, Sensititre
# Experimental: as §1
row,SMILES,MIC
1,"NC[C@H]1O[C@H](O[C@H]2[C@H](O)[C@@H](O[C@H]3O[C@H](CO)[C@@H](O)[C@H](N)[C@H]3O)[C@H](N)C[C@@H]2N)[C@H](N)C[C@@H]1O [TOB, tobramycin]",0.5 µg/mL
